Assay results from patent US12257274B2, “Fructophilic lactic acid producing bacteria” (priority 2019, dated 2025).
Where a name gives a salt, the structure may show the parent alone. Read-outs that look alike come from different tables or passages of the source.

Experiments:
[1] = system: Bacillus coagulans MTCC 25235; assay: MIC of antibiotics by broth microdilution (CLSI), antibiotic resistance pattern; assay type: cell-based
Procedure: (§1) MIC was determined as per the guidelines of Clinical and Laboratory Standards Institute (CLSI 2012). Bacillus coagulans MTCC 25235 suspensions were prepared by suspending 18 h grown bacterial culture in sterile normal saline (0.89% NaCl wt/vol; Himedia, Mumbai India). The turbidity of the bacterial suspension was adjusted to 0.5 McFarland standards (equivalent to 1.5×10^8 colony forming units (CFU)/ml). The antibiotics stock solutions were prepared as per CLSI guidelines and 2-fold serial dilutions were prepared in broth medium (glucose yeast extract acetate broth [GYEA, HiMedia, Mumbai India for Bacillus coagulans MTCC 25235 and Mueller Hinton Broth [MHB, Difco Laboratories, Detroit, Mich USA] for S. aureus) in 100 μl volume in 96-well U bottom microtiter plates (BD Labware, NJ USA). The above-mentioned bacterial suspension was further diluted in the MHB and 100 μl volume of this diluted inoculum was added to each well of the plate resulting in the final inoculum of 5×10^5 CFU/ml in the well and the final concentration of antibiotics ranged from 0.0078 to 4 μg/ml. S. aureus ATCC 6538 was used as reference culture in this study. The plates were incubated at 37° C. for 24 h and were visually read for the absence or presence of turbidity. The minimum concentration of the compound concentration showing no turbidity was recorded as MIC.

S. aureus ATCC 6538 = assay: MIC of antibiotics by broth microdilution (CLSI), reference culture; assay type: cell-based
Procedure: as §1

[2] = Heyndrickxia coagulans, MTCC25235, against Bacillus coagulans MTCC 25235, GYEA broth, 37° C., 24 h, read-out: MIC
[3] = Staphylococcus aureus, ATCC6538, against S. aureus ATCC 6538, MHB, 37° C., 24 h, read-out: MIC
[4] = Heyndrickxia coagulans, MTCC25235, 24 h
[5] = Staphylococcus aureus, ATCC6538, 24 h
[6] = against Bacillus coagulans MTCC 25235, GYEA broth, 37° C., 24 h
[7] = against S. aureus ATCC 6538, MHB, 37° C., 24 h

Molecule	MIC [1, 2]	MIC (S. aureus ATCC 6538; [3])	other results
CCC[C@@H]1C[C@@H](C(=O)N[C@@H]([C@H]2O[C@H](SC)[C@H](O)[C@@H](O)[C@H]2O)[C@H](C)Cl)N(C)C1 [Clindamycin hydrochloride]	0.25 µg/mL	0.062 µg/mL	–
CC1(C)S[C@@H]2[C@H](NC(=O)[C@H](N)c3ccccc3)C(=O)N2[C@H]1C(=O)O [Ampicillin sodium salt]	0.125 µg/mL	0.031 µg/mL	–
CN[C@H](CC(C)C)C(=O)N[C@H]1C(=O)N[C@@H](CC(N)=O)C(=O)N[C@H]2C(=O)N[C@H]3C(=O)N[C@H](C(=O)N[C@H](C(=O)O)c4cc(O)cc(O)c4-c4cc3ccc4O)[C@H](O)c3ccc(c(Cl)c3)Oc3cc2cc(c3O[C@@H]2O[C@H](CO)[C@@H](O)[C@H](O)[C@H]2O[C@H]2C[C@](C)(N)[C@H](O)[C@H](C)O2)Oc2ccc(cc2Cl)[C@H]1O [Vancomycin hydrochloride]	–	–	MIC [1, 4]: 0.25 µg/mL; MIC (S. aureus ATCC 6538; [5]): 0.5 µg/mL
Gentamicin sulphate	–	–	MIC [1, 6]: 0.06 µg/mL; MIC (S. aureus ATCC 6538; [7]): 0.25 µg/mL
O=C(N[C@H](CO)[C@H](O)c1ccc([N+](=O)[O-])cc1)C(Cl)Cl [Chloramphenicol]	0.031 µg/mL	2 µg/mL	–
CN(C)[C@@H]1C(O)=C(C(N)=O)C(=O)[C@@]2(O)C(O)=C3C(=O)c4c(O)cccc4[C@@](C)(O)[C@H]3C[C@@H]12 [Tetracycline hydrochloride]	0.03 µg/mL	0.062 µg/mL	–
Kanamycin sulphate	–	–	MIC [1, 6]: 0.062 µg/mL; MIC (S. aureus ATCC 6538; [7]): 7.0 µg/mL
[H]/N=C(/N)N[C@H]1[C@H](O)[C@@H](O)[C@H](O[C@@H]2O[C@@H](C)[C@](O)(C=O)[C@H]2O[C@@H]2O[C@@H](CO)[C@H](O)[C@@H](O)[C@@H]2NC)[C@@H](N/C(N)=N\[H])[C@@H]1O [Streptomycin sulphate]	0.062 µg/mL	4 µg/mL	–
CC[C@H]1OC(=O)[C@H](C)[C@@H](O[C@H]2C[C@@](C)(OC)[C@@H](O)[C@H](C)O2)[C@H](C)[C@@H](O[C@@H]2O[C@H](C)C[C@H](N(C)C)[C@H]2O)[C@](C)(O)C[C@@H](C)C(=O)[C@H](C)[C@@H](O)[C@]1(C)O [Erythromycin]	–	–	MIC [1, 4]: 0.125 µg/mL; MIC (S. aureus ATCC 6538; [5]): 0.125 µg/mL
